Assay results from PubChem BioAssay (NCI).
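Cultured in 96-well plates, cells were exposed to test compound for 48 hours across five concentrations. Here, GI50 denotes the concentration required for 50% inhibition of growth. TGI is the concentration that stops growth completely.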

Assays:
Assay in all cases: DTP human tumour cell line panel, 48 h
SF-295 CNS = test system: SF-295 CNS
IGROV1 ovarian = test system: IGROV1 ovarian
A498 renal = test system: A498 renal
MDA-MB-231 breast = test system: MDA-MB-231 breast
OVCAR-3 ovarian = test system: OVCAR-3 ovarian
NCI-H23 lung = test system: NCI-H23 lung
A549 NSCLC = test system: A549 NSCLC
OVCAR-8 ovarian = test system: OVCAR-8 ovarian
HL-60(TB) leukemia = test system: HL-60(TB) leukemia
NCI-H522 lung = test system: NCI-H522 lung
CCRF-CEM leukemia = test system: CCRF-CEM leukemia
DU-145 prostate = test system: DU-145 prostate
T-47D breast = test system: T-47D breast
K-562 leukemia = test system: K-562 leukemia
COLO 205 colon = test system: COLO 205 colon
NCI-H226 lung = test system: NCI-H226 lung
U251 CNS = test system: U251 CNS
HOP-62 NSCLC = test system: HOP-62 NSCLC
SK-OV-3 ovarian = test system: SK-OV-3 ovarian
CAKI-1 renal = test system: CAKI-1 renal
MDA-MB-435 = test system: MDA-MB-435
SF-268 CNS = test system: SF-268 CNS
SK-MEL-5 melanoma = test system: SK-MEL-5 melanoma
LOX IMVI melanoma = test system: LOX IMVI melanoma
UACC-257 melanoma = test system: UACC-257 melanoma
M14 melanoma = test system: M14 melanoma
NCI-H460 lung = test system: NCI-H460 lung
OVCAR-4 ovarian = test system: OVCAR-4 ovarian
SN12C renal = test system: SN12C renal
NCI/ADR-RES ovarian = test system: NCI/ADR-RES ovarian
HT29 colon = test system: HT29 colon
RPMI-8226 leukemia = test system: RPMI-8226 leukemia
HOP-92 NSCLC = test system: HOP-92 NSCLC
HCT-15 colon = test system: HCT-15 colon
SNB-19 CNS = test system: SNB-19 CNS
KM12 colon = test system: KM12 colon
SW-620 colon = test system: SW-620 colon
SK-MEL-28 melanoma = test system: SK-MEL-28 melanoma
EKVX NSCLC = test system: EKVX NSCLC
SK-MEL-2 melanoma = test system: SK-MEL-2 melanoma
UACC-62 melanoma = test system: UACC-62 melanoma
SF-539 CNS = test system: SF-539 CNS
RXF 393 renal = test system: RXF 393 renal
MCF7 breast = test system: MCF7 breast
HS 578T breast = test system: HS 578T breast
786-0 renal = test system: 786-0 renal
PC-3 prostate = test system: PC-3 prostate
OVCAR-5 ovarian = test system: OVCAR-5 ovarian
TK-10 renal = test system: TK-10 renal
MALME-3M melanoma = test system: MALME-3M melanoma
BT-549 breast = test system: BT-549 breast
HCT-116 colon = test system: HCT-116 colon
UO-31 renal = test system: UO-31 renal
SNB-75 CNS = test system: SNB-75 CNS
SR leukemia = test system: SR leukemia
HCC-2998 colon = test system: HCC-2998 colon
ACHN renal = test system: ACHN renal
MOLT-4 leukemia = test system: MOLT-4 leukemia

## O=C1OCC(C#Cc2ccccc2)=C1Br
SF-295 CNS
  GI50: 17.7 µM
  TGI: 48.8 µM
IGROV1 ovarian
  GI50: 4.77 µM
  TGI: 33.5 µM
A498 renal
  GI50: 19.3 µM
  TGI: 54.5 µM
MDA-MB-231 breast
  GI50: 3.12 µM
  TGI: 14.8 µM
OVCAR-3 ovarian
  GI50: 1.77 µM
  TGI: 8.9 µM
NCI-H23 lung
  GI50: 2.94 µM
  TGI: 9.5 µM
A549 NSCLC
  GI50: 16.7 µM
  TGI: 34.6 µM
OVCAR-8 ovarian
  GI50: 2.27 µM
  TGI: 7.26 µM
HL-60(TB) leukemia
  GI50: 0.0201 µM
  TGI: 0.384 µM
NCI-H522 lung
  GI50: 17.4 µM
  TGI: 49.7 µM
CCRF-CEM leukemia
  GI50: 1.1 µM
  TGI: 5.58 µM
DU-145 prostate
  GI50: 3.42 µM
  TGI: 13.2 µM
T-47D breast
  GI50: 16.3 µM
  TGI: > 67.5 µM
K-562 leukemia
  GI50: 2.63 µM
  TGI: 11.6 µM
COLO 205 colon
  GI50: 5.35 µM
  TGI: > 54.7 µM
NCI-H226 lung
  GI50: 23.1 µM
  TGI: 72 µM
U251 CNS
  GI50: 4.88 µM
  TGI: > 39.3 µM
HOP-62 NSCLC
  GI50: 13.2 µM
  TGI: 38.2 µM
SK-OV-3 ovarian
  GI50: 52.9 µM
  TGI: > 100 µM
CAKI-1 renal
  GI50: 5.61 µM
  TGI: 13.4 µM
MDA-MB-435
  GI50: 10.8 µM
  TGI: 48.3 µM
SF-268 CNS
  GI50: 4.76 µM
  TGI: 20.6 µM
SK-MEL-5 melanoma
  GI50: 1.82 µM
  TGI: 6.15 µM
LOX IMVI melanoma
  GI50: 3.15 µM
  TGI: > 35.9 µM
UACC-257 melanoma
  GI50: 8.26 µM
  TGI: 28.2 µM
M14 melanoma
  GI50: 2.83 µM
  TGI: 16 µM
NCI-H460 lung
  GI50: 19.5 µM
  TGI: 48.5 µM
OVCAR-4 ovarian
  GI50: 7.13 µM
  TGI: 27.7 µM
SN12C renal
  GI50: 3.14 µM
  TGI: 14.1 µM
NCI/ADR-RES ovarian
  GI50: 6.25 µM
  TGI: > 63.2 µM
HT29 colon
  GI50: 7.67 µM
  TGI: 97.4 µM
RPMI-8226 leukemia
  GI50: 0.648 µM
  TGI: 3.09 µM
HOP-92 NSCLC
  GI50: 3.93 µM
  TGI: 13.4 µM
HCT-15 colon
  GI50: 3.96 µM
  TGI: > 38.4 µM
SNB-19 CNS
  GI50: 21.5 µM
  TGI: > 68.8 µM
KM12 colon
  GI50: 3.64 µM
  TGI: 15 µM
SW-620 colon
  GI50: 1.72 µM
  TGI: 5.75 µM
SK-MEL-28 melanoma
  GI50: 4.75 µM
  TGI: > 100 µM
EKVX NSCLC
  GI50: 17.2 µM
  TGI: 35.5 µM
SK-MEL-2 melanoma
  GI50: 18.8 µM
  TGI: 52.4 µM
UACC-62 melanoma
  GI50: 10.7 µM
  TGI: 26.1 µM
SF-539 CNS
  GI50: 2.42 µM
  TGI: 9.81 µM
RXF 393 renal
  GI50: 3.96 µM
  TGI: 31.8 µM
MCF7 breast
  GI50: 2.69 µM
  TGI: 12.8 µM
HS 578T breast
  GI50: 6.2 µM
  TGI: 19 µM
786-0 renal
  GI50: 2.58 µM
  TGI: 12.5 µM
PC-3 prostate
  GI50: 2.56 µM
  TGI: 12.7 µM
OVCAR-5 ovarian
  GI50: > 100 µM
  TGI: > 100 µM
TK-10 renal
  GI50: 0.929 µM
  TGI: 17.1 µM
MALME-3M melanoma
  GI50: 2.18 µM
  TGI: 9.33 µM
BT-549 breast
  GI50: 6.03 µM
  TGI: 27.4 µM
HCT-116 colon
  GI50: 0.541 µM
  TGI: > 31.6 µM
UO-31 renal
  GI50: 7.66 µM
  TGI: 22.7 µM
SNB-75 CNS
  GI50: 18.1 µM
  TGI: > 100 µM
SR leukemia
  GI50: 0.186 µM
  TGI: > 100 µM
HCC-2998 colon
  GI50: 19.3 µM
  TGI: 37.3 µM
ACHN renal
  GI50: 9.34 µM
  TGI: > 43.9 µM

## C#C[C@@]1(O)[C@@H](CO)O[C@@H](n2cc(Br)c3c(N)ncnc32)[C@@H]1O
SF-295 CNS
  GI50: 0.297 µM
  TGI: 7.52 µM
IGROV1 ovarian
  GI50: 0.0699 µM
  TGI: 0.485 µM
A498 renal
  GI50: 0.227 µM
  TGI: 0.587 µM
MDA-MB-231 breast
  GI50: 0.11 µM
  TGI: > 100 µM
OVCAR-3 ovarian
  GI50: 0.215 µM
  TGI: 3.77 µM
NCI-H23 lung
  GI50: 0.191 µM
  TGI: 2.85 µM
OVCAR-8 ovarian
  GI50: 0.0135 µM
  TGI: 1.12 µM
HL-60(TB) leukemia
  GI50: 0.0218 µM
  TGI: 0.0757 µM
NCI-H522 lung
  GI50: 0.0978 µM
  TGI: 0.444 µM
CCRF-CEM leukemia
  GI50: 0.2 µM
  TGI: > 100 µM
DU-145 prostate
  GI50: 0.0974 µM
  TGI: > 100 µM
T-47D breast
  GI50: 0.0173 µM
  TGI: 0.177 µM
K-562 leukemia
  GI50: 0.0608 µM
  TGI: > 100 µM
COLO 205 colon
  GI50: 0.0891 µM
  TGI: 0.46 µM
NCI-H226 lung
  GI50: 1.28 µM
  TGI: > 25.2 µM
HOP-62 NSCLC
  GI50: 0.3 µM
  TGI: > 21.8 µM
SK-OV-3 ovarian
  GI50: 0.0441 µM
  TGI: 0.439 µM
MDA-MB-435
  GI50: 0.176 µM
  TGI: 10.3 µM
SF-268 CNS
  GI50: 0.482 µM
  TGI: 51.7 µM
SK-MEL-5 melanoma
  GI50: 0.107 µM
  TGI: 1.94 µM
LOX IMVI melanoma
  GI50: 0.0552 µM
  TGI: 0.249 µM
UACC-257 melanoma
  GI50: 4.08 µM
  TGI: 61.6 µM
M14 melanoma
  GI50: 0.226 µM
  TGI: 13.5 µM
NCI-H460 lung
  GI50: 0.0292 µM
  TGI: 0.901 µM
OVCAR-4 ovarian
  GI50: 0.366 µM
  TGI: > 100 µM
SN12C renal
  GI50: 0.0907 µM
  TGI: > 100 µM
NCI/ADR-RES ovarian
  GI50: 0.0451 µM
  TGI: 1.02 µM
HT29 colon
  GI50: 0.038 µM
  TGI: > 100 µM
RPMI-8226 leukemia
  GI50: 0.128 µM
  TGI: 0.828 µM
HOP-92 NSCLC
  GI50: 0.218 µM
  TGI: 1.46 µM
HCT-15 colon
  GI50: 0.11 µM
  TGI: > 100 µM
SNB-19 CNS
  GI50: 0.0606 µM
KM12 colon
  GI50: 0.107 µM
  TGI: > 100 µM
SW-620 colon
  GI50: 0.0487 µM
  TGI: > 100 µM
SK-MEL-28 melanoma
  GI50: 3.65 µM
  TGI: 38.1 µM
EKVX NSCLC
  GI50: 0.198 µM
  TGI: 2.68 µM
SK-MEL-2 melanoma
  GI50: 0.134 µM
  TGI: 0.571 µM
UACC-62 melanoma
  GI50: 0.23 µM
  TGI: 12.3 µM
SF-539 CNS
  GI50: 0.298 µM
  TGI: 1.53 µM
RXF 393 renal
  GI50: 0.48 µM
  TGI: 2.29 µM
MCF7 breast
  GI50: 0.0222 µM
  TGI: 1.47 µM
HS 578T breast
  GI50: 0.644 µM
  TGI: > 72.4 µM
PC-3 prostate
  GI50: 0.0893 µM
  TGI: > 29.5 µM
OVCAR-5 ovarian
  GI50: 0.593 µM
  TGI: > 75.3 µM
TK-10 renal
  GI50: 0.445 µM
  TGI: > 92.6 µM
MALME-3M melanoma
  GI50: 0.708 µM
  TGI: 13.1 µM
BT-549 breast
  GI50: 0.186 µM
  TGI: 0.663 µM
HCT-116 colon
  GI50: 0.0274 µM
  TGI: > 100 µM
UO-31 renal
  GI50: 0.13 µM
  TGI: 1.5 µM
SNB-75 CNS
  GI50: 0.234 µM
  TGI: 0.746 µM
SR leukemia
  GI50: 0.0608 µM
  TGI: > 100 µM
HCC-2998 colon
  GI50: 0.201 µM
  TGI: 0.809 µM
MOLT-4 leukemia
  GI50: 0.112 µM
